Results on 2 compounds are retold here after US20230144211A1, “ANTIFOLATE LINKER-DRUGS AND ANTIBODY-DRUG CONJUGATES” (Byondis B.V., priority 2020, published 2023).

Common to all, as to test: In vitro cell viability assay (CellTiter-Glo, 6 days)
The subject of one assay is AU-565 cells. It counts as cell-based, human. The conditions noted are these: Homo sapiens, AU565, free antifolate drugs, Table 1c. The method in brief:
(§1)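 Cells plated overnight, then given 10 serial log10 dilutions of free drug (1% final DMSO) or ADC in medium. After 6 days, CellTiter-Glo luminescence expressed as % of untreated control. IC50 taken as the midpoint of a 4-parameter logistic fit; mean of at least one experiment in duplicate.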

The test system of another assay is SK-BR-3 cells. Type of assay: cell-based, human. The following applies: Homo sapiens. The method, boiled down:
as §1

The subject of the next assay is MV4-11 cells. Type of assay: cell-based. The conditions noted are these: Homo sapiens, free antifolate drugs, Table 1d. Here is the method:
(§2) Human tumor cell lines SK-BR-3, SW-620, A-549, BT-474, Jurkat Clone E6-1, AU-565, and SK-OV-3 were obtained from American Type Culture Collection (Rockville, Md., USA). FaDu, BxPC-3, HeLa, MV4-11, and RAJI cell lines were obtained from Deutsche Sammlung von Mikroorganismen und Zellkulturen (Leipzig, Germany). Jurkat NucLight Red cells were obtained from Essen BioScience Inc. (Ann Arbor, Mich., USA). SK-BR-3 and SK-OV-3 cells were cultured in McCoys 5A medium (Lonza; Walkersville, Md., USA) supplemented with 10% v/w Fetal Bovine Serum (FBS), Heat-inactivated (HI) (Gibco-Life Technologies; Carlsbad, Calif.) and 80 U/mL Pen/Strep (Gibco-Life Technologies), at 37° C. in a humidified incubator under 5% CO2 atmosphere. SW-620 cells were similarly maintained in RPMI 1640 medium (Lonza), containing 10% v/w FBS HI and 80 U/mL Pen/Strep. A-549 cells were similarly maintained in F-12K Nutrient Mixture (1×) (Gibco-Life Technologies) media supplemented with 80 U/mL Pen/Strep and 5% v/w FBS, which was Qualified (Q) (Gibco-Life Technologies). BT-474 and AU-565 cells were similarly maintained in RPMI 1640 medium (Lonza), containing 10% v/w FBS, which was Qualified (Q) (Gibco-Life Technologies), and 80 U/mL Pen/Strep. Jurkat Clone E6-1, BxPC-3, HeLa, MV4-11, and RAJI cells were similarly maintained in RPMI 1640 medium (Lonza), containing 10% v/w FBS HI and 80 U/mL Pen/Strep. Jurkat NucLight Red cells were similarly maintained in RPMI 1640 medium (Lonza), containing 10% v/w FBS HI, 80 U/mL Pen/Strep and 0.5 μg/mL Puromycin (Gibco-Life Technologies). FaDu cells were cultured in EMEM medium (Lonza) supplemented with 10% v/w FBS HI (Gibco-Life Technologies), 1× GlutaMAX (Gibco-Life Technologies), and 80 U/mL Pen/Strep (Gibco-Life Technologies), at 37° C. in a humidified incubator under 5% CO2 atmosphere.
(§3) Cells in complete growth medium were plated in 96-well plates (90 μL/well) and incubated at 37° C., 5% CO2 at the following cell densities: 6500 SK-BR-3, 4000 SW-620, 2500 A-549, 10000 BT-474, 3000 Jurkat Clone E6-1, 5000 AU-565, 1250 FaDu, 1250 BxPC-3, 1000 HeLa, 7500 MV4-11, 1000 RAJI, 3000 Jurkat NucLight Red, and 4000 SK-OV-3 cells per well. After an overnight incubation, 10 serial log 10 dilutions of the free drugs were made in DMSO (Sigma-Aldrich). These free drug dose-response curves were 10-times further diluted in complete growth medium. For the ADCs according to the invention 10 serial log 10 dilutions were made in complete growth medium. 10 μL of a composition comprising a free drug or an ADC according to the invention was added to the assay plate (final DMSO content for free drugs was 1%). […] Cell viability was assessed after 6 days using a luminescent assay kit (CellTiter-Glo™ (CTG), Promega Corporation) according to the manufacturer's instructions. Percentage cell survival was calculated by dividing the measured luminescence for each free drug or ADC according to the concentration with the average mean of untreated cells (1% or 0.1% DMSO control (for free drugs) or 100% complete growth medium (for ADCs)) multiplied by 100.
(§4) Curves were fitted by non-linear regression using the sigmoidal dose-response equation with variable slope (four parameters) using curve-fitting software (GraphPad Prism, version 9.4.0 for Windows, GraphPad, San Diego, Calif. or Electronic Laboratory Notebook (ELN) add-in BioAssay, version 19.1.0.0218, Perkin Elmer, Waltham, Mass.). Relative IC50 values were calculated as the concentration that gives a response halfway between bottom and top of the curve, when using a 4-parameter logistic fit. Data were reported as mean IC50 value of at least one experiment performed in duplicate.

For another assay, the system named is HeLa cells. It counts as cell-based. The conditions noted are these: Homo sapiens, free antifolate drugs, Table 1d. The protocol: as §2, §3, §4
A further assay has as its system RAJI cells. It counts as cell-based. The conditions noted are these: Homo sapiens, free antifolate drugs, Table 1d. The protocol: as §2, §3, §4
In a further assay the test system is BxPC-3 cells. Type of assay: cell-based. The conditions noted are these: Homo sapiens, free antifolate drugs, Table 1d. Here is the method: as §2, with “FaDu,” for “Human tumor cell lines SK-BR-3, SW-620, A-549, BT-474, Jurkat Clone E6-1, AU-565, and SK-OV-3 were obtained from American Type Culture Collection (Rockville, Md., USA). FaDu,”, “Jurkat Clone E6-1, BxPC-3, HeLa, MV4-11, and RAJI cells were similarly maintained in RPMI 1640 medium (Lonza), containing 10% v/w FBS HI and 80 U/mL Pen/Strep.” left out
(§5) After an overnight incubation, 10 serial log 10 dilutions of the free drugs were made in DMSO (Sigma-Aldrich). These free drug dose-response curves were 10-times further diluted in complete growth medium. For the ADCs according to the invention 10 serial log 10 dilutions were made in complete growth medium. 10 μL of a composition comprising a free drug or an ADC according to the invention was added to the assay plate (final DMSO content for free drugs was 1%). […] […] Percentage cell survival was calculated by dividing the measured luminescence for each free drug or ADC according to the concentration with the average mean of untreated cells (1% or 0.1% DMSO control (for free drugs) or 100% complete growth medium (for ADCs)) multiplied by 100.
as §4

For the next assay, the system named is FaDu cells. It counts as cell-based. The conditions noted are these: Homo sapiens, free antifolate drugs, Table 1d. Here is the method: as §2, with “FaDu,” for “Human tumor cell lines SK-BR-3, SW-620, A-549, BT-474, Jurkat Clone E6-1, AU-565, and SK-OV-3 were obtained from American Type Culture Collection (Rockville, Md., USA). FaDu,”, “Jurkat Clone E6-1, BxPC-3, HeLa, MV4-11, and RAJI cells were similarly maintained in RPMI 1640 medium (Lonza), containing 10% v/w FBS HI and 80 U/mL Pen/Strep.” left out
as §5, §4

Assay [1] deals with Jurkat NucLight Red cells. It counts as cell-based, human. The conditions noted are these: Homo sapiens, Jurkat, free antifolate drugs. The method, boiled down: as §1
A further assay relates to Jurkat Clone E6-1 cells. Type of assay: cell-based. The conditions noted are these: Homo sapiens, free antifolate drugs, Table 1d. Here is the method:
Human tumor cell lines SK-BR-3, SW-620, A-549, BT-474, Jurkat Clone E6-1, AU-565, and SK-OV-3 were obtained from American Type Culture Collection (Rockville, Md., USA). FaDu, BxPC-3, HeLa, MV4-11, and RAJI cell lines were obtained from Deutsche Sammlung von Mikroorganismen und Zellkulturen ([…], Germany). Jurkat NucLight Red cells were obtained from Essen BioScience Inc. (Ann Arbor, Mich., USA). SK-BR-3 and SK-OV-3 cells were cultured in McCoys 5A medium (Lonza; Walkersville, Md., USA) supplemented with 10% v/w Fetal Bovine Serum (FBS), Heat-inactivated (HI) (Gibco-Life Technologies; Carlsbad, Calif.) and 80 U/mL Pen/Strep (Gibco-Life Technologies), at 37° C. in a humidified incubator under 5% CO2 atmosphere. […]
Cells in complete growth medium were plated in 96-well plates (90 μL/well) and incubated at 37° C., 5% CO2 at the following cell densities: 6500 SK-BR-3, 4000 SW-620, 2500 A-549, 10000 BT-474, 3000 Jurkat Clone E6-1, 5000 AU-565, 1250 FaDu, 1250 BxPC-3, 1000 HeLa, 7500 MV4-11, 1000 RAJI, 3000 Jurkat NucLight Red, and 4000 SK-OV-3 cells per well. […] Percentage cell survival was calculated by dividing the measured luminescence for each free drug or ADC according to the concentration with the average mean of untreated cells (1% or 0.1% DMSO control (for free drugs) or 100% complete growth medium (for ADCs)) multiplied by 100. […]

Setting [2] is: SK-BR-3, 24 h, free antifolate drugs, Table 1d.

The IC50 is the concentration that inhibits the measured activity by half.

For the compound `Nc1ccc(C(=O)NCCC[C@H](NC(=O)c2ccc(CCc3ccc4nc(N)nc(N)c4c3Cl)cc2)C(=O)O)c(-c2nnn[nH]2)c1` [XT123, (S)-5-(4-amino-2-(1H-tetrazol-5-yl)benzamido)-2-(4-(2-(2,4-diamino-5-chloroquinazolin-6-yl)ethyl)benzamido)pentanoic acid], the IC50 in the assay with AU-565 cells worked out at 0.35 nM; in the assay on SK-BR-3 cells (setting [2]), 0.63 nM; with SK-BR-3 cells (SK-BR-3, free antifolate drugs, Table 1c) it was 0.44 nM; in the assay on MV4-11 cells, 0.62 nM; with HeLa cells it was 0.11 nM; with RAJI cells it was 0.6 nM. The IC50 in the assay with BxPC-3 cells was found to be 0.71 nM; with FaDu cells, 0.19 nM; in [1] (24 h, Table 1d), 0.79 nM; in [1] (Table 1c) it was 0.6 nM.
Regarding `Nc1ccc(C(=O)NCCC[C@H](NC(=O)c2ccc(CCc3cnc4nc(N)nc(N)c4n3)cc2O)C(=O)O)c(-c2nnn[nH]2)c1` [XT162, (S)-5-(4-Amino-2-(1H-tetrazol-5-yl)benzamido)-2-(4-(2-(2,4-diaminopteridin-6-yl)ethyl)-2-hydroxybenzamido)pentanoic acid], the IC50 in the assay on SK-BR-3 cells (setting [2]) was 0.86 nM; in the assay on BxPC-3 cells, 0.78 nM; in the assay on FaDu cells, 0.44 nM; with Jurkat Clone E6-1 cells it was 0.78 nM; in assay [1] (24 h, Table 1d), 0.66 nM.
